According to publication PMC7284125, “Identification of annotated bioactive molecules that impair motility of the blood fluke Schistosoma mansoni” (International Journal for Parasitology: Drugs and Drug …, 2020):

system: S. mansoni schistosomulae; test: Motility assay on schistosomulae (pixel displacement, relative to DMSO control); type: cell-based, Schistosoma mansoni; conditions: schistosomulae, secondary screen, 24h exposure, read at D1, 1 µM
Procedure: Puerto Rican strain Biomphalaria glabrata snails infected with S. mansoni were kindly provided by Dr. Fred Lewis (Biomedical Research Institute and BEI Resources, MD, USA). Schistosomulae were obtained by exposing six to eight weeks-old snails to continuous light for 2 h at 32 °C. The resulting suspension of cercaria was then mechanically transformed as described ([Lewis, 2001]) and cultured in Opti-MEM/antibiotics (Thermo Fisher Scientific, Waltham, MA) containing 100 μg/mL streptomycin and 100 units/ml penicillin supplemented with 5% fetal bovine serum (FBS; Thermo Fisher). Parasite cultures were incubated at 37 °C with 5% CO2 for at least 10 days with no apparent loss of viability. At this point, animals with internal dark granulations and with no observable body contraction/relaxation cycles were considered dead.
(§1) Schistosomulae (200/well) and adult parasites (unpaired worms) were maintained in 300 μL OPTI-MEM with 5% dialyzed FBS (without antibiotics) and exposed to compounds at 1 and 10 μM for 24 h. A kinetic assay consisting of 1, 3, 6 and 12 h incubation times was performed on selected hits by motility monitoring using a stereo microscope (SMZ1270, Nikon) for adults and an inverted microscope for schistosomulae (eclipse TE2000-U, Nikon) connected to a monochrome camera (DS-Qi2, Nikon) for image acquisition. Images were recorded at a rate of 10 frames/s for a period of 1 min and videos were analyzed using ImageJ software (version 1.41, NIH, USA). Parasite movement quantification and data analysis protocols were applied using the pixel displacement method ([Patocka et al., 2014]; [Rashid et al., 2015]) and compared to control parasites treated with DMSO. Parasites were then washed several times in Opti-MEM, 5% FBS and incubated up to an additional three days (schistosomulae) or five days (adult worms) at 37 °C, 5% CO2 and motility was recorded as described above.

Row | Structure (SMILES) | Fractional motility
1 | Cc1nc(C#Cc2ccnc(Cl)c2)c(C)n1-c1ccc(OC(F)(F)F)cc1 [CTEP] | 0.25
2 | O=C(Nc1ccccc1-c1cn2c(CN3CCNCC3)csc2n1)c1cnc2ccccc2n1 [SRT1720] | 20.54
3 | C/C(=N\NC(=S)N1CCC1)c1ccccn1 [NSC319726] | 0.0562
4 | NS(=O)(=O)C#Cc1ccccc1 [Pifithrin-μ] | 1.37

Further lines, results first:

Row | Fractional motility | Structure (SMILES)
5 | -0.26 | Cc1cnc(-c2cc(N3CCN(C(=O)CCS(C)(=O)=O)CC3)ncc2Cl)c(C)c1 [PF-5274857]
6 | 1.58 | CCCCCCCCCCCCCCCCn1cc[n+](Cc2ccccc2)c1C.[I-] [NH125]
7 | 3.03 | CCn1c2ccccc2c2cc(Nc3ccnc(NCCCN4CCOCC4)n3)ccc21 [EHop-016]

same assay, conditions: schistosomulae, secondary screen, 24h exposure, read at D1, 10 µM

Row | Structure (SMILES) | Fractional motility
8 | Cc1nc(C#Cc2ccnc(Cl)c2)c(C)n1-c1ccc(OC(F)(F)F)cc1 [CTEP] | 1.01
9 | O=C(Nc1ccccc1-c1cn2c(CN3CCNCC3)csc2n1)c1cnc2ccccc2n1 [SRT1720] | -1.00
10 | C/C(=N\NC(=S)N1CCC1)c1ccccn1 [NSC319726] | 0.59
11 | NS(=O)(=O)C#Cc1ccccc1 [Pifithrin-μ] | 2.61

More lines, now with the values ahead:

Row | Fractional motility | Structure (SMILES)
12 | 0.15 | Cc1cnc(-c2cc(N3CCN(C(=O)CCS(C)(=O)=O)CC3)ncc2Cl)c(C)c1 [PF-5274857]
13 | -0.66 | CCCCCCCCCCCCCCCCn1cc[n+](Cc2ccccc2)c1C.[I-] [NH125]
14 | 0.07 | CCn1c2ccccc2c2cc(Nc3ccnc(NCCCN4CCOCC4)n3)ccc21 [EHop-016]

same assay, conditions: schistosomulae, secondary screen, 24h exposure, read at D5, 1 µM

Row | Structure (SMILES) | Fractional motility
15 | Cc1nc(C#Cc2ccnc(Cl)c2)c(C)n1-c1ccc(OC(F)(F)F)cc1 [CTEP] | 0.27
16 | O=C(Nc1ccccc1-c1cn2c(CN3CCNCC3)csc2n1)c1cnc2ccccc2n1 [SRT1720] | 0.36
17 | C/C(=N\NC(=S)N1CCC1)c1ccccn1 [NSC319726] | -0.75
18 | NS(=O)(=O)C#Cc1ccccc1 [Pifithrin-μ] | -0.80

Results, then the molecule that gave them:

Row | Fractional motility | Structure (SMILES)
19 | -0.49 | Cc1cnc(-c2cc(N3CCN(C(=O)CCS(C)(=O)=O)CC3)ncc2Cl)c(C)c1 [PF-5274857]
20 | -0.08 | CCCCCCCCCCCCCCCCn1cc[n+](Cc2ccccc2)c1C.[I-] [NH125]
21 | 0.99 | CCn1c2ccccc2c2cc(Nc3ccnc(NCCCN4CCOCC4)n3)ccc21 [EHop-016]

same assay, conditions: schistosomulae, secondary screen, 24h exposure, read at D5, 10 µM

Row | Structure (SMILES) | Fractional motility
22 | Cc1nc(C#Cc2ccnc(Cl)c2)c(C)n1-c1ccc(OC(F)(F)F)cc1 [CTEP] | 0.27
23 | O=C(Nc1ccccc1-c1cn2c(CN3CCNCC3)csc2n1)c1cnc2ccccc2n1 [SRT1720] | -1.00
24 | C/C(=N\NC(=S)N1CCC1)c1ccccn1 [NSC319726] | -0.93
25 | NS(=O)(=O)C#Cc1ccccc1 [Pifithrin-μ] | -1.00

Now from value to molecule:

Row | Fractional motility | Structure (SMILES)
26 | 4.02 | Cc1cnc(-c2cc(N3CCN(C(=O)CCS(C)(=O)=O)CC3)ncc2Cl)c(C)c1 [PF-5274857]
27 | -0.55 | CCCCCCCCCCCCCCCCn1cc[n+](Cc2ccccc2)c1C.[I-] [NH125]
28 | -0.94 | CCn1c2ccccc2c2cc(Nc3ccnc(NCCCN4CCOCC4)n3)ccc21 [EHop-016]

system: S. mansoni schistosomulae; test: Phenotypic primary screen assay on schistosomulae (phenotype; viability by methylene blue dye exclusion); type: cell-based, Schistosoma mansoni; conditions: 24 h incubation, five days
Procedure: Puerto Rican strain Biomphalaria glabrata snails infected with S. mansoni were kindly provided by Dr. Fred Lewis (Biomedical Research Institute and BEI Resources, MD, USA). Schistosomulae were obtained by exposing six to eight weeks-old snails to continuous light for 2 h at 32 °C. […] At this point, animals with internal dark granulations and with no observable body contraction/relaxation cycles were considered dead.
Schistosomulae were monitored under a stereo microscope (SMZ1270, Nikon). Phenotypic observations were made by analyzing schistosomulae, 24 h after drug addition to assess any immediate effect and five days post-compound exposure to observe long-term impacts on both the movement and overall body shape in comparison to control animals exposed to DMSO only.

Row | Structure (SMILES) | effect on viability of schistosomulae in words
29 | O=C(Nc1ccccc1-c1cn2c(CN3CCNCC3)csc2n1)c1cnc2ccccc2n1 [SRT1720] | lethal

same assay, conditions: three-day-old schistosomulae, 10 μM, 24 h; calculated 5 days post compound exposure

Row | Structure (SMILES) | Viability (%)
30 | Cc1cnc(-c2cc(N3CCN(C(=O)CCS(C)(=O)=O)CC3)ncc2Cl)c(C)c1 [PF-5274857] | 96.5
31 | CCCCCCCCCCCCCCCCn1cc[n+](Cc2ccccc2)c1C.[I-] [NH125] | 18
32 | Cc1nc(C#Cc2ccnc(Cl)c2)c(C)n1-c1ccc(OC(F)(F)F)cc1 [CTEP] | 99
33 | O=C(Nc1ccccc1-c1cn2c(CN3CCNCC3)csc2n1)c1cnc2ccccc2n1 [SRT1720] | 0
34 | C/C(=N\NC(=S)N1CCC1)c1ccccn1 [NSC319726] | 68
35 | NS(=O)(=O)C#Cc1ccccc1 [Pifithrin-μ] | 0
36 | CCn1c2ccccc2c2cc(Nc3ccnc(NCCCN4CCOCC4)n3)ccc21 [EHop-016] | 80

same assay, conditions: three-day-old schistosomulae, 10 μM, 24 h; estimated 5 days post compound exposure

Row | Structure (SMILES) | Phenotype
37 | Cc1cnc(-c2cc(N3CCN(C(=O)CCS(C)(=O)=O)CC3)ncc2Cl)c(C)c1 [PF-5274857] | granulated
38 | CCCCCCCCCCCCCCCCn1cc[n+](Cc2ccccc2)c1C.[I-] [NH125] | big, dark, granulated
39 | Cc1nc(C#Cc2ccnc(Cl)c2)c(C)n1-c1ccc(OC(F)(F)F)cc1 [CTEP] | big, granulated, blebbing
40 | O=C(Nc1ccccc1-c1cn2c(CN3CCNCC3)csc2n1)c1cnc2ccccc2n1 [SRT1720] | dark, granulated
41 | C/C(=N\NC(=S)N1CCC1)c1ccccn1 [NSC319726] | dark, granulated
42 | NS(=O)(=O)C#Cc1ccccc1 [Pifithrin-μ] | big , dark, granulated
43 | CCn1c2ccccc2c2cc(Nc3ccnc(NCCCN4CCOCC4)n3)ccc21 [EHop-016] | big, dark

system: S. mansoni adult worms; test: Motility assay on adult parasites (pixel displacement, relative to DMSO control); type: cell-based, Schistosoma mansoni; conditions: adults, 10 μM, long-term after washout
Procedure: Adult parasites were collected from 40 day-old female CD1 mice (Charles River) previously inoculated by the tail infection method ([Lewis, 2001]). Six weeks post-infection, mice were sacrificed, and adult worms extracted after perfusion of in the hepatic portal vein and mesenteric venules ([Lewis, 2001]). Animal procedures were reviewed and approved by the Facility Animal Care Committee of McGill University (Protocol No. 3346) and were conducted in accordance with the guidelines of the Canadian Council on Animal Care.
as §1

Row | motility phenotype in words | Structure (SMILES)
44 | Significant hypomotility | CCCCCCCCCCCCCCCCn1cc[n+](Cc2ccccc2)c1C.[I-] [NH125]

same assay, conditions: secondary screen, 10 μM, D1, Female adult worms

Row | Structure (SMILES) | Fractional motility
45 | Cc1nc(C#Cc2ccnc(Cl)c2)c(C)n1-c1ccc(OC(F)(F)F)cc1 [CTEP] | -0.44
46 | O=C(Nc1ccccc1-c1cn2c(CN3CCNCC3)csc2n1)c1cnc2ccccc2n1 [SRT1720] | 3.42
47 | C/C(=N\NC(=S)N1CCC1)c1ccccn1 [NSC319726] | -0.13
48 | NS(=O)(=O)C#Cc1ccccc1 [Pifithrin-μ] | -0.0347

Next, values leading:

Row | Fractional motility | Structure (SMILES)
49 | -0.02 | Cc1cnc(-c2cc(N3CCN(C(=O)CCS(C)(=O)=O)CC3)ncc2Cl)c(C)c1 [PF-5274857]
50 | -0.74 | CCCCCCCCCCCCCCCCn1cc[n+](Cc2ccccc2)c1C.[I-] [NH125]
51 | 0.25 | CCn1c2ccccc2c2cc(Nc3ccnc(NCCCN4CCOCC4)n3)ccc21 [EHop-016]

same assay, conditions: secondary screen, 10 μM, D1, Male adult worms

Row | Structure (SMILES) | Fractional motility
52 | Cc1nc(C#Cc2ccnc(Cl)c2)c(C)n1-c1ccc(OC(F)(F)F)cc1 [CTEP] | -0.49
53 | O=C(Nc1ccccc1-c1cn2c(CN3CCNCC3)csc2n1)c1cnc2ccccc2n1 [SRT1720] | 2.50
54 | C/C(=N\NC(=S)N1CCC1)c1ccccn1 [NSC319726] | -0.16
55 | NS(=O)(=O)C#Cc1ccccc1 [Pifithrin-μ] | -0.36

Continued, values first:

Row | Fractional motility | Structure (SMILES)
56 | -0.62 | Cc1cnc(-c2cc(N3CCN(C(=O)CCS(C)(=O)=O)CC3)ncc2Cl)c(C)c1 [PF-5274857]
57 | 0.53 | CCCCCCCCCCCCCCCCn1cc[n+](Cc2ccccc2)c1C.[I-] [NH125]
58 | 0.85 | CCn1c2ccccc2c2cc(Nc3ccnc(NCCCN4CCOCC4)n3)ccc21 [EHop-016]

same assay, conditions: secondary screen, 10 μM, D5, Female adult worms

Row | Structure (SMILES) | Fractional motility
59 | Cc1nc(C#Cc2ccnc(Cl)c2)c(C)n1-c1ccc(OC(F)(F)F)cc1 [CTEP] | -0.35
60 | O=C(Nc1ccccc1-c1cn2c(CN3CCNCC3)csc2n1)c1cnc2ccccc2n1 [SRT1720] | 0.62
61 | C/C(=N\NC(=S)N1CCC1)c1ccccn1 [NSC319726] | -0.84
62 | NS(=O)(=O)C#Cc1ccccc1 [Pifithrin-μ] | -0.90

Continued, values first:

Row | Fractional motility | Structure (SMILES)
63 | -0.13 | Cc1cnc(-c2cc(N3CCN(C(=O)CCS(C)(=O)=O)CC3)ncc2Cl)c(C)c1 [PF-5274857]
64 | -0.89 | CCCCCCCCCCCCCCCCn1cc[n+](Cc2ccccc2)c1C.[I-] [NH125]
65 | -0.62 | CCn1c2ccccc2c2cc(Nc3ccnc(NCCCN4CCOCC4)n3)ccc21 [EHop-016]

same assay, conditions: secondary screen, 10 μM, D5, Male adult worms

Row | Structure (SMILES) | Fractional motility
66 | Cc1nc(C#Cc2ccnc(Cl)c2)c(C)n1-c1ccc(OC(F)(F)F)cc1 [CTEP] | -0.57
67 | O=C(Nc1ccccc1-c1cn2c(CN3CCNCC3)csc2n1)c1cnc2ccccc2n1 [SRT1720] | 1.34
68 | C/C(=N\NC(=S)N1CCC1)c1ccccn1 [NSC319726] | -0.08
69 | NS(=O)(=O)C#Cc1ccccc1 [Pifithrin-μ] | -0.23

Continued, values first:

Row | Fractional motility | Structure (SMILES)
70 | -0.56 | Cc1cnc(-c2cc(N3CCN(C(=O)CCS(C)(=O)=O)CC3)ncc2Cl)c(C)c1 [PF-5274857]
71 | -0.87 | CCCCCCCCCCCCCCCCn1cc[n+](Cc2ccccc2)c1C.[I-] [NH125]
72 | -0.29 | CCn1c2ccccc2c2cc(Nc3ccnc(NCCCN4CCOCC4)n3)ccc21 [EHop-016]
